Test results taken from publication PMC2820250 (Journal of the American Chemical Society, 2009).
Where a name gives a salt, the structure may show the parent alone.

Target: recombinant human BACE-1 (Homo sapiens, UniProt P56817)
Test: BACE-1 FRET peptide cleavage assay
Type: biochemical
Details: for IC50, inhibition of cleavage of FRET peptide by BACE-1: FRET peptide with Swedish variant, pH 4.5, 2 h, 25 °C, triplicate; for inhibitory activity against BACE-1 cleavage of FRET peptide, in words: qualitative statement

recombinant human BACE-1, sequence (P56817 46-501): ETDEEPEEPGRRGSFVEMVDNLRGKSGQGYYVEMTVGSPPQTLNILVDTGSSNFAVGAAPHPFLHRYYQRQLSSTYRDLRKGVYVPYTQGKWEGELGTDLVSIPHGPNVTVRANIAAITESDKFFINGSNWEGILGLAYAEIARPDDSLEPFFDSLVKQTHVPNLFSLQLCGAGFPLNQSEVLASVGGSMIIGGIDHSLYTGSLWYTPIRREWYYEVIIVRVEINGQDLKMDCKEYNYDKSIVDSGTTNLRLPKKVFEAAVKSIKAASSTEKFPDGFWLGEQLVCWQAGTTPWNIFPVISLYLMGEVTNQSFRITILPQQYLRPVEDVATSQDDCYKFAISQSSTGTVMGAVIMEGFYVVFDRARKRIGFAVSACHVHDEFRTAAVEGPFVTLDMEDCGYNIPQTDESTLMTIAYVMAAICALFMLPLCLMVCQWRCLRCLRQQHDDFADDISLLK

IC50, inhibition of cleavage of FRET peptide by BACE-1 [µg/ml] | inhibitory activity against BACE-1 cleavage of FRET peptide, in words | reduction of potency relative to compound 83 (acetamido moieties instead of N-sulfates) [fold] | Compound
167 | – | – | 5-Aminopentyl [(β-D-glucopyranosyluronate)-(1→4)-O-(2-acetamido-2-deoxy-6-O-sulfonato- α-D-glucopyranoside)-(1→4)-O-(2-O-sulfonato-α-L-idopyranosyluronate)]-(1→4)-2-deoxy-2-acetamido-6-O-sulfonate-α-D-glucopyranoside penta sodium salt [Compound 85]
97 | modest activity | – | NCCCCCO[C@H]1O[C@H](COS(=O)(=O)[O-])[C@@H](O[C@@H]2O[C@H](C(=O)[O-])[C@@H](O[C@H]3O[C@H](COS(=O)(=O)[O-])[C@@H](O[C@@H]4O[C@H](C(=O)[O-])[C@@H](O)[C@H](O)[C@H]4O)[C@H](O)[C@H]3NS(=O)(=O)[O-])[C@H](O)[C@H]2O)[C@H](O)[C@H]1NS(=O)(=O)[O-].[Na+].[Na+].[Na+].[Na+].[Na+].[Na+] [Compound 77]
240 | – | – | NCCCCCO[C@H]1O[C@H](COS(=O)(=O)[O-])[C@@H](O[C@@H]2O[C@@H](C(=O)[O-])[C@@H](O[C@H]3O[C@H](COS(=O)(=O)[O-])[C@@H](O[C@@H]4O[C@H](C(=O)[O-])[C@@H](O)[C@H](O)[C@H]4O)[C@H](O)[C@H]3NS(=O)(=O)[O-])[C@H](O)[C@H]2O)[C@H](O)[C@H]1NS(=O)(=O)[O-].[Na+].[Na+].[Na+].[Na+].[Na+].[Na+] [Compound 79]
4.6 | relatively high potency | – | NCCCCCO[C@H]1O[C@H](COS(=O)(=O)[O-])[C@@H](O[C@@H]2O[C@@H](C(=O)[O-])[C@@H](O[C@H]3O[C@H](COS(=O)(=O)[O-])[C@@H](O[C@@H]4O[C@@H](C(=O)[O-])[C@@H](O)[C@H](O)[C@H]4O)[C@H](O)[C@H]3NS(=O)(=O)[O-])[C@H](O)[C@H]2O)[C@H](O)[C@H]1NS(=O)(=O)[O-].[Na+].[Na+].[Na+].[Na+].[Na+].[Na+] [Compound 83]
>300 | – | – | 5-Aminopentyl [(β-D-glucopyranosyluronate)-(1→4)-O-(2-deoxy-2-sulfamino-6-O-sulfonate-α-D-glucopyranoside)-(1→4)-O-(2-O-sulfonate-α-L-idopyranosyluronate)-(1→4)-2-deoxy-2-sulfoamino-6-O-sulfonate-α-D-glucopyranoside heptasodium salt [Compound 86]
104 | – | – | CC(=O)N[C@H]1[C@@H](O[C@H]2[C@H](O)[C@@H](O)[C@H](O[C@H]3[C@H](O)[C@@H](NC(C)=O)[C@@H](OCCCCCN)O[C@@H]3COS(=O)(=O)[O-])O[C@@H]2C(=O)[O-])O[C@H](COS(=O)(=O)[O-])[C@@H](O[C@@H]2O[C@@H](C(=O)[O-])[C@@H](O)[C@H](O)[C@H]2O)[C@@H]1O.[Na+].[Na+].[Na+].[Na+] [Compound 80]
64 | – | – | NCCCCCOC1OC(COS(=O)(=O)O)C(OC2OC(C(=O)O)C(OC3OC(COS(=O)(=O)O)C(OC4OC(C(=O)O)C(OC5OC(COS(=O)(=O)O)C(OC6OC(C(=O)O)C(O)C(O)C6O)C(O)C5NS(=O)(=O)O)C(O)C4O)C(O)C3NS(=O)(=O)O)C(O)C2O)C(O)C1NS(=O)(=O)O [Compound 69, 5-aminopentyl [(β-D-glucopyranosyluronate)-(1→4)-(2-deoxy-2-sulfoamino-6-O-sulfonato-α-D-glucopyranoside)-(1→4)-O-(α-L-idopyranosyluronate)-(1→4)-O-(2-deoxy-2-sulfoamino-6-O-sulfanate-α-D-glucopyranoside)-(1→4)-(β-D-glucopyranosyluronate)]-(1→4)-O-2-deoxy-N-sulfoamino-6-O-sulfonate-α-D-glucopyranoside nonasodium salt]
35 | modest activity | 10 | CC(=O)N[C@H]1[C@@H](O[C@H]2[C@H](O)[C@@H](O)[C@H](O[C@H]3[C@H](O)[C@@H](NC(C)=O)[C@@H](OCCCCCN)O[C@@H]3COS(=O)(=O)[O-])O[C@H]2C(=O)[O-])O[C@H](COS(=O)(=O)[O-])[C@@H](O[C@@H]2O[C@@H](C(=O)[O-])[C@@H](O)[C@H](O)[C@H]2O)[C@@H]1O.[Na+].[Na+].[Na+].[Na+] [Compound 82]
>300 | – | – | 5-Aminopentyl [(α-L-idopyranosyluronate)-(1→4)-O-(2-acetamido-2-deoxy-6-O-sulfonate-α-D-glucopyranoside)-(1→4)-O-(2-O-sulfonato-α-L-idopyranosyl-uronate)]-(1→4)-2-deoxy-2-acetamido-6-O-sulfonate-α-D-glucopyranoside penta sodium salt [Compound 84]
>300 | – | – | CC(=O)N[C@H]1[C@@H](O[C@H]2[C@H](O)[C@@H](O)[C@H](O[C@H]3[C@H](O)[C@@H](NC(C)=O)[C@@H](OCCCCCN)O[C@@H]3COS(=O)(=O)[O-])O[C@H]2C(=O)[O-])O[C@H](COS(=O)(=O)[O-])[C@@H](O[C@@H]2O[C@H](C(=O)[O-])[C@@H](O)[C@H](O)[C@H]2O)[C@@H]1O.[Na+].[Na+].[Na+].[Na+] [Compound 78]
290 | – | – | NCCCCCO[C@H]1O[C@H](COS(=O)(=O)[O-])[C@@H](O[C@@H]2O[C@H](C(=O)[O-])[C@@H](O[C@H]3O[C@H](COS(=O)(=O)[O-])[C@@H](O[C@@H]4O[C@@H](C(=O)[O-])[C@@H](O)[C@H](O)[C@H]4O)[C@H](O)[C@H]3NS(=O)(=O)[O-])[C@H](O)[C@H]2O)[C@H](O)[C@H]1NS(=O)(=O)[O-].[Na+].[Na+].[Na+].[Na+].[Na+].[Na+] [Compound 81, 5-aminopentyl [(L-α-idopyranosyluronate)-(1→4)-O-(2-deoxy-2-sulfoamino-6-O-sulfonate-α-D-glucopyranoside)-(1→4)-O-(β-D-glucopyranosyluronate)]-(1→4)-2-deoxy-2-sulfoamino-6-O-sulfonate-α-D-glucopyranoside hexasodium salt]
39 | modest activity | – | CC(=O)N[C@H]1[C@@H](O[C@H]2[C@H](O)[C@@H](O)[C@H](O[C@H]3[C@H](O)[C@@H](NC(C)=O)[C@@H](OCCCCCN)O[C@@H]3COS(=O)(=O)[O-])O[C@@H]2C(=O)[O-])O[C@H](COS(=O)(=O)[O-])[C@@H](O[C@@H]2O[C@H](C(=O)[O-])[C@@H](O)[C@H](O)[C@H]2O)[C@@H]1O.[Na+].[Na+].[Na+].[Na+] [Compound 76]
